Measurements reported in article PMC6881072, “The repositioning of epigenetic probes/inhibitors identifies new anti-schistosomal lead compounds and chemotherapeutic targets” (PLoS Neglected Tropical Diseases, 2019).
“Also recorded” adds a separate entry of the source. Like-named read-outs stand apart in the source and are kept apart here.

Assays:
[1] = test system: S. mansoni schistosomula; test: In vitro schistosomula screening (Roboworm platform), phenotype and motility; format: cell-based, Schistosoma mansoni; conditions: for hit / activity against schistosomula, single-point screen: hit cut-offs phenotype -0.15, motility -0.35; for EC50: Schistosoma mansoni
Experimental: Briefly, 384-well tissue culture plates (Perkin Elmer, cat 6007460), containing 20 μl of Basch medium, were wet-stamped using a Biomek NX^P liquid handling platform (Beckman Coulter, UK) with negative (0.625% dimethyl sulfoxide, DMSO) and positive controls (AUR and PZQ at 10 μM final concentration in 0.625% DMSO) as well as 37 SGC compounds (at 10 μM final concentration in 0.625% DMSO). […] To each pre-loaded well (single concentration or titration screens), a total of 100–120 mechanically transformed schistosomula (in 60 μl) were deposited via a WellMate (Thermo Scientific, UK). Schistosomula/compound co-cultures (80 μl in total) were then incubated at 37°C for 72 h in a humidified atmosphere containing 5% CO2. At 72 h, tissue culture plates (containing schistosomula/compound co-cultures) were imaged under the same conditions (37°C in a humidified atmosphere containing 5% CO2) using an ImageXpressXL high content imager (Molecular Devices, UK) with subsequent images processed for phenotype and motility as previously reported and successfully implemented by us at Aberystwyth University. Single point schistosomula screens (10 μM) were repeated two or three times whereas dose response titrations were performed once. Zˊ values obtained from all schistosomula screens ranged from 0.27–0.48 (mean = 0.40) for phenotype and 0.41–0.56 (mean = 0.48) for motility.

[2] = test system: adult male and female schistosome pairs; test: In vitro adult schistosome screening (WHO/TDR motility, egg counts); format: cell-based, Schistosoma mansoni; conditions: for EC50: Schistosoma mansoni, 72 h
Experimental: In vitro screening was replicated three times on different dates to account for any biological variation. Briefly three adult worm pairs/well (48-well tissue culture plate format) were placed into DMEM (Gibco, Paisley, UK) supplemented with 10% (v/v) FCS (Gibco, Paisley, UK), 1% (v/v) L-glutamine (Gibco, Paisley, UK) and an antibiotic mixture (150 Units/ml penicillin and 150 μg/ml streptomycin; Gibco, UK). DMSO (0.5% negative control), AUR (10 μM concentration in 0.5% DMSO; positive control) and two-fold titrations of SGC compounds (50 μM– 6.25 μM or 50 μM– 0.05 μM; in 0.5% DMSO max) were added, and together, these adult worm/compound co-cultures were incubated at 37°C for 72 h in a humidified atmosphere containing 5% CO2. Following compound incubation, WHO/TDR readouts of adult worm motility, abundance of H3K36me2 (LLY-507 and BAY-598 treated worms only) in histone extracts and egg counts/well were recorded at 72 h.

[3] = HepG2 cell cytotoxicity, MTT assay; format: cell-based, Human; conditions: human, read-out: CC50 (HepG2) (95% Confidence Intervals)
Experimental: Human Hepatocyte Carcinoma (HepG2) cells (Sigma Aldrich, UK) were utilized to assess SGC epigenetic probe cell cytotoxicity in the application of the MTT (3-(4,5-dimethylthiazol-2-yl)-2,5-diphenyltetrazolium bromide) assay. Briefly, cells were passaged at 70–80% confluence and seeded (20,000 cells/ 50 μL per well) in a 96-well, black-sided, clear-bottomed falcon plate (Fisher Scientific, UK) with the final plate column (8 wells) being treated as a blank (media only). Following a 24 h incubation (5% CO2, 37°C, humidified), HepG2 cells were then treated with 50 μL of pre-warmed media (37°C) containing SGC EPs/EIs at 200 μM to 0.02 μM (final concentration 100 μM, 10 μM, 1 μM, 0.1 μM and 0.01 μM). Three positive (1% Triton X-100) and negative (1% DMSO) control wells per plate were additionally included.
After addition of compounds, each plate was then incubated for a further 20 h before application of MTT for assessment of overt compound cytotoxicity using the MTT assay. The MTT assay was read using the POLARstar Omega (BMG LabTech, UK) plate reader at an absorbance of 570 nm. CC50s were calculated in GraphPad Prism.

[4] = CC50 HepG2 / schistosomula motility EC50
[5] = CC50 HepG2 / schistosomula phenotype EC50
[6] = 72 h, two-fold titration 10 μM–0.625 μM, single replicate, approximate, read-out: SCHISTOSOMULA EC50 Motility
[7] = 72 h, two-fold titration 10 μM–0.625 μM, single replicate, approximate, read-out: SCHISTOSOMULA EC50 Phenotype
[8] = motility, adult females, read-out: ADULT EC50 (95% Confidence Intervals) Females
[9] = motility, adult males, read-out: ADULT EC50 (95% Confidence Intervals) Males
[10] = 72 h, read-out: SCHISTOSOMULA EC50 Motility
[11] = 72 h, read-out: SCHISTOSOMULA EC50 Phenotype
[12] = read-out: ADULT EC50 (95% Confidence Intervals) Females
[13] = read-out: ADULT EC50 (95% Confidence Intervals) Males

Structure (SMILES)	hit / activity against schistosomula, single-point screen ([1]; 10 μM, 72 h)	SELECTIVITY INDEX Schistosomula Motility [1, 4]	SELECTIVITY INDEX Schistosomula Phenotype [1, 5]	EC50 [1, 6]	EC50 [1, 7]	SELECTIVITY INDEX Adult Females ([2]; CC50 HepG2 / adult female EC50)	SELECTIVITY INDEX Adult Males ([2]; CC50 HepG2 / adult male EC50)	EC50 [2, 8]	EC50 [2, 9]	CC50 at 20 h ([3]; HepG2 cells)	other results
CCN(C(=O)CO)C1CN(C(=Nc2cccc(OC(F)F)c2)NC#N)N=C1c1ccccc1 (stereo not drawn) [BAY-369]	None of these chemotype controls demonstrated anti-schistosomula activity; also recorded: is not										
CCOC(=O)CCNc1cc(N2CCc3ccccc3CC2)nc(-c2cccnc2)n1 [GSKJ5]	None of these chemotype controls demonstrated anti-schistosomula activity										
CCCc1cc(C)n(C)c(=O)c1CN(C)C(=O)c1cc(-c2ccc(N3CCN(C(C)C)CC3)nc2)cc2c1cnn2C(C)C [UNC2400]	None of these chemotype controls demonstrated anti-schistosomula activity										
CC(=O)Nc1ccc(C(=O)Nc2ccccc2N)cc1 [CI-994]	non-hit										
CC(C)Oc1ccc(-c2c[nH]cc2CN(C)CCN)cc1 [MS023, 3-(((2-amino-ethyl)-methyl-amino)-methyl)-4-(4-(1-methyl-ethoxy)-phenyl)-1H-pyrrole]		2.52	4.14	6.45 µM	3.92 µM	0.62	0.62	26.3 µM	26.2 µM	16.2 µM	
O=C(/C=C/c1ccc(CN(CCO)CCc2c[nH]c3ccccc23)cc1)NO [LAQ824]	hit	6.40	7.04	2.45 µM	2.22 µM	0.95	0.63	16.5 µM	25 µM	15.6 µM	
CCCc1cc(C)[nH]c(=O)c1CNC(=O)c1cc(-c2ccc(N3CCN(C(C)C)CC3)nc2)cc2c1cnn2C(C)C [UNC1999, N-[(6-methyl-2-oxo-4-propyl-1,2-dihydropyridin-3-yl)methyl]-1-(propan-2-yl)-6-{6-[4-(propan-2-yl)piperazin-1-yl]pyridin-3-yl}-1H-indazole-4-carboxamide]	are hits against schistosomula	11.16	7.48	2.82 µM	4.2 µM	1.95	2.32	16.1 µM	13.5 µM	31.4 µM	
CCn1cc(-c2cccc(C(F)(F)F)c2)c2sc(C(=N)NC3CCS(=O)(=O)CC3)cc2c1=O [I-BRD9, N-(1,1-dioxidotetrahydro-2H-thiopyran-4-yl)-5-ethyl-4-oxo-7-(3-(trifluoromethyl)phenyl)-4,5-dihydrothieno[3,2-c]pyridine-2-carboximidamide]		7.61	24.44	4.13 µM	1.29 µM	1.31	1.10	24 µM	28.5 µM	31.4 µM	
COc1ccc(CCc2nc3cc(-c4c(C)noc4C)ccc3n2CC(C)N2CCOCC2)cc1Cl (stereo not drawn) [SGC-CBP30, 8-(3-chloro-4-methoxy-phenethyl)-4-(3,5-dimethyl-isoxazol-4-yl)-9-(2-(morpholin-4-yl)-propyl)-7,9-diaza-bicyclo[4.3.0]nona-1(6),2,4,7-tetraene]	demonstrated activity against schistosomula			4.99 µM	3.19 µM			31.2 µM	33.5 µM	> 50 µM	S[…] Schistosomula Motility [1, 4]: 10.03; S[…] Schistosomula Phenotype [1, 5]: 15.69; S[…] Adult Females ([2]; CC50 HepG2 / adult female EC50): 1.6; S[…] Adult Males ([2]; CC50 HepG2 / adult male EC50): 1.49
Clc1cc2c(NC3CCCC3)nnc(-c3ccncc3)c2cc1Cl [A-196, 8,9-dichloro-N-cyclopentyl-5-(pyridin-4-yl)-3,4-diaza-bicyclo[4.4.0]deca-1(10),2,4,6,8-pentaen-2-amine]		10.45	36.00	4.78 µM	1.39 µM	3.13	2.24	16 µM	22.3 µM	> 50 µM	
CCCS(=O)(=O)c1nc(NC2CC2)cc(-c2ccc3c(ccn3C3CC(C)(C)NC(C)(C)C3)c2)n1 [NVS-CECR2-1, N-cyclopropyl-2-propylsulfonyl-6-[1-(2,2,6,6-tetramethylpiperidin-4-yl)indol-5-yl]pyrimidin-4-amine]		3.60	4.98			1.73	3.11				schistosomula phenotype by microscopic assessment ([1]; 10 μM, 72 h): phenotypes comparable to auranofin; EC50 [1, 10]: 2.5 µM; EC50 [1, 11]: 1.81 µM; EC50 [2, 12]: 5.21 µM; EC50 [2, 13]: 2.9 µM; CC50 at 20 h [3]: 9.03 µM
Cc1sc2c(c1C)C(c1ccc(Cl)cc1)=N[C@@H](CC(=O)OC(C)(C)C)c1nnc(C)n1-2 [JQ1, [(S)-4-(4-Chloro-phenyl)-2,3,9-trimethyl-6H-1-thia-5,7,8,9a-tetraaza-cyclopenta[e]azulen-6-yl]-acetic acid tert-butyl este]		5.53	3.56			0.73	0.92				EC50 [1, 10]: 3.04 µM; EC50 [1, 11]: 4.72 µM; EC50 [2, 12]: 22.8 µM; EC50 [2, 13]: 18.3 µM; CC50 at 20 h [3]: 16.8 µM
CCC(=O)N1CCOc2c(cc(-c3ccc(OC)c(OC)c3)cc2OC[C@H]2CCCN(C)C2)C1 [I-CBP112, 1-[7-(3,4-dimethoxyphenyl)-9-{[(3S)-1-methylpiperidin-3-yl]methoxy}-2,3,4,5-tetrahydro-1,4-benzoxazepin-4-yl]propan-1-one]	did not										
